Results reported in patent publication US4530838A, “Synthetic calcitonin-gene-related peptides for lowering blood pressure or gastric acid secretion in mammals” (The Salk Institute for Biological Studies, priority 1983, dated 1985).

What was measured:
rats [1] = assay: Mean arterial blood pressure (MAP) by direct arterial monitoring in unanesthetized rats; type: in vivo
Method: (§1) The synthetic CGRP was examined for its effect on mean arterial blood pressure(MAP) gastric acid secretion and plasma catecholamine levels. The effects of CGRP on MAP, gastric secretion and plasma catecholamine levels were determined in unanesthetized rats and Beagle dogs. MAP was measured via direct arterial monitoring and gastric acids were collected from chronic gastric-abdominal wall cannula. […] Mean arterial blood pressure in rats fell from 106 to 57±2 mm Hg within about 1 minute following an injection of 6.5 nmoles CGRP and then slowly returned to control values during a period of more than one hour. The iv administration of an injection equal to 650 pmoles of CGRP lowered MAP to 73±3 mm Hg in about one minute, returning to control value in about 1 hour. IV and ICV administration of CGRP (10 pmoles) to rats and dogs lowers pentagastrin-induced acid secretion by more than 70% for several hours.

Beagle dogs [2] = assay: Mean arterial blood pressure (MAP) by direct arterial monitoring in unanesthetized Beagle dogs; type: in vivo
Method: as §1

rats [3] = assay: Pentagastrin-induced gastric acid secretion, chronic gastric-abdominal wall cannula, rats; type: in vivo; details: IV and ICV, 10 pmoles, for several hours
Method: as §1

Beagle dogs [4] = assay: Pentagastrin-induced gastric acid secretion, chronic gastric-abdominal wall cannula, dogs; type: in vivo; details: IV and ICV, 10 pmoles, for several hours
Method: as §1

[5] = Plasma catecholamine (norepinephrine) levels in unanesthetized animals; type: in vivo, rats and Beagle dogs; details: IV and ICV, 6.5 nmoles
Method: as §1

[6] = Blood pressure (MAP) lowering, general procedure of Example I, species not stated; type: in vivo; details: species and dose not stated
Method: as §1
The peptide [Lys^35 ]-CGRP having the formula: [drawing 7] is synthesized.

[7] = iv, degree and duration dose-related

Structure (SMILES)	Rapid decrease in MAP evoked, intercerebroventricular (icv) administration (rats [1]; icv)	Period of return of MAP to control values (rats [1]; injection of 6.5 nmoles)	Mean arterial blood pressure after injection (rats [1]; injection of 6.5 nmoles, fell from 106 within about 1 minute)	Time of return of MAP to control value (rats [1]; iv injection of 650 pmoles)	Mean arterial blood pressure after injection (rats [1]; iv injection of 650 pmoles, in about one minute)	Effect on MAP, intravenous (iv) administration (rats [1]; [7])	Rapid decrease in MAP evoked, intercerebroventricular (icv) administration (Beagle dogs [2]; icv)	Effect on MAP, intravenous (iv) administration (Beagle dogs [2]; [7])	Lowering of pentagastrin-induced acid secretion (rats [3])	Lowering of pentagastrin-induced acid secretion (Beagle dogs [4])	Norepinephrine in plasma [5]	Effect on blood pressure / MAP [6]
CC(C)C[C@H](NC(=O)CNC(=O)[C@H](C)NC(=O)[C@H](CC(C)C)NC(=O)[C@H](CCCNC(=N)N)NC(=O)[C@H](Cc1c[nH]cn1)NC(=O)[C@@H](NC(=O)[C@@H](NC(=O)[C@@H]1CSSC[C@H](NC(=O)[C@@H](N)CO)C(=O)N[C@@H](CC(N)=O)C(=O)N[C@@H]([C@@H](C)O)C(=O)N[C@@H](C)C(=O)N[C@@H]([C@@H](C)O)C(=O)N1)C(C)C)[C@@H](C)O)C(=O)N[C@@H](CC(C)C)C(=O)N[C@@H](CO)C(=O)N[C@@H](CCCNC(=N)N)C(=O)N[C@@H](CO)C(=O)NCC(=O)NCC(=O)N[C@H](C(=O)N[C@H](C(=O)N[C@@H](CCCCN)C(=O)N[C@@H](CC(=O)O)C(=O)N[C@@H](CC(N)=O)C(=O)N[C@@H](Cc1ccccc1)C(=O)N[C@H](C(=O)N1CCC[C@H]1C(=O)N[C@H](C(=O)N[C@@H](CC(N)=O)C(=O)N[C@H](C(=O)NCC(=O)N[C@@H](CO)C(=O)N[C@@H](CCC(=O)O)C(=O)N[C@@H](C)C(=O)N[C@@H](Cc1ccccc1)C(N)=O)C(C)C)[C@@H](C)O)C(C)C)C(C)C)C(C)C [CGRP]	not	more than one	57±2 mm Hg	about 1 hour	73±3 mm Hg	rapid decrease in MAP	not	rapid decrease in MAP	more than 70%	more than 70%	significant elevation	substantially lower blood pressure for an extended time period
CC(C)C[C@H](NC(=O)CNC(=O)[C@H](C)NC(=O)[C@H](CC(C)C)NC(=O)[C@H](CCCNC(=N)N)NC(=O)[C@H](Cc1c[nH]cn1)NC(=O)[C@@H](NC(=O)[C@@H](NC(=O)[C@@H]1CSSC[C@H](NC(=O)[C@@H](N)CO)C(=O)N[C@@H](CC(N)=O)C(=O)N[C@@H]([C@@H](C)O)C(=O)N[C@@H](C)C(=O)N[C@@H]([C@@H](C)O)C(=O)N1)C(C)C)[C@@H](C)O)C(=O)N[C@@H](CC(C)C)C(=O)N[C@@H](CO)C(=O)N[C@@H](CCCNC(=N)N)C(=O)N[C@@H](CO)C(=O)NCC(=O)NCC(=O)N[C@H](C(=O)N[C@H](C(=O)N[C@@H](CCCCN)C(=O)N[C@@H](CC(=O)O)C(=O)N[C@@H](CC(N)=O)C(=O)N[C@@H](Cc1ccccc1)C(=O)N[C@H](C(=O)N1CCC[C@H]1C(=O)N[C@H](C(=O)N[C@@H](CC(N)=O)C(=O)N[C@H](C(=O)NCC(=O)N[C@@H](CO)C(=O)N[C@@H](CCCCN)C(=O)N[C@@H](C)C(=O)N[C@@H](Cc1ccccc1)C(N)=O)C(C)C)[C@@H](C)O)C(C)C)C(C)C)C(C)C [[Lys^35]-CGRP]												very significant lowering of MAP
